Data reported in patent US20020019389A1, “Urea derivative useful as an anti-cancer agent and process for preparing same” (priority 2000, published 2002).
Values after ≈ are worked out from the molar mass of the structure shown. Read-outs that look alike come from different tables or passages of the source.

Key:
SPF ICR mouse [1] = settings: clinically used comparison drugs, not among the test compounds of b552; species and route not given; cited from earlier work
[2] = system: A431 (ovarian cancer) cell line; test: Anti-cancer activity in vitro, A431 cell line; type: cell-based; settings: A431 Cell Line
Method: (§1) The anti-cancer activity and toxicity of the compound according to the present invention were evaluated in vitro using A549 (lung cancer), SUN638 (gastric cancer), HCT116 (rectal cancer), and A431 (ovarian cancer) cell lines. The above four (4) cell lines were purchased from Cancer Research Institute, Seoul National University College of Medicine. […] The experiment was basically carried out according to the process described in Monks, A., et al, Journal of National Cancer Institute. 83: 757-766 (1991) and the results are represented in the following Tables 2 and 3.

[3] = system: HCT116 (rectal cancer) cell line; test: Anti-cancer activity in vitro, HCT116 cell line; type: cell-based; settings: HCT116 Cell Line
Method: as §1

SPF ICR mouse [4] = test: Acute toxicity test, single oral administration; type: in vivo; settings: single administration per oral, 7-day observation
Method: (1) Test Animal: SPF ICR mouse
(2) Age of the Test Animal: 4 weeks from acquisition 5 weeks from the start of administration
(3) Gender and Number of Test Animal: respective 18 he and she-mice (6 groups in each of he and she-mice, 3 mice per group)
(4) Breeding Environment: Temperature 22±3° C., Relative humidity […], Illumination 150-300 Lux
(5) Method of Administration: Single administration per oral
(6) Items to be Observed: General symptoms, appearance, weight and autopsy of dead mice
(8) Medium: 0.5% Tween 80

[5] = system: SUN638 (gastric cancer) cell line; test: Anti-cancer activity in vitro, SUN638 cell line; type: cell-based; settings: SUN638 Cell Line
Method: as §1

[6] = system: A549 (lung cancer) cell line; test: Anti-cancer activity in vitro, A549 cell line; type: cell-based; settings: A549 Cell Line
Method: as §1

Structure (SMILES) | LD50 (SPF ICR mouse [1]) [mg/kg] | GI50 [2] [µg/mL] | LC50 [2] [µg/mL] | TGI50 [2] [µg/mL] | GI50 [3] [µg/mL] | LC50 [3] [µg/mL] | TGI50 [3] [µg/mL] | LD50 (SPF ICR mouse [4]; female ICR mice) | LD50 (SPF ICR mouse [4]; male ICR mice) | GI50 [5] [µg/mL] | LC50 [5] [µg/mL] | TGI50 [5] [µg/mL] | GI50 [6] [µg/mL] | LC50 [6] [µg/mL] | TGI50 [6] [µg/mL] | LD50 (SPF ICR mouse [4]; male and female ICR mice)
N.N.O=C([O-])C1(C(=O)[O-])CCC1.[Pt+2] [Carboplatin] | 150 | – | – | – | – | – | – | – | – | – | – | – | – | – | – | –
COc1cc2c(cc1OC)C(c1ccccc1)CN(C(=O)n1ccnc1)CC2 (centres unmarked) [Compound 66, 3-[(1H-imidazol-1-yl)carbonyl]-7,8-dimethoxy-1-phenyl-2,3,4,5-tetrahydro-3H-benzazepine] | – | 0.28 (≈ 0.742 µM) | >100 | 100 | 0.19 (≈ 0.503 µM) | >100 | 7.76 | 2000 (female) mg/kg | 1921 (male) mg/kg | 0.21 (≈ 0.556 µM) | >100 | 1.73 | 0.38 (≈ 1.01 µM) | >100 | 54.95 | –
COc1cc2c(cc1OC)C(c1ccc(F)cc1)CN(C(=O)n1ccnc1)CC2 (centres unmarked) [Compound 70, 3-[(1H-imidazol-1-yl)carbonyl]-7,8-dimethoxy-1-(4-fluoro)phenyl-2,3,4,5-tetrahydro-3H-benzazepine] | – | – | – | – | 1.31 (≈ 3.31 µM) | >100 | 23.98 | – | – | 1.78 (≈ 4.5 µM) | >100 | 7.24 | 1.12 (≈ 2.83 µM) | >100 | 100 | 2000 (male and female) mg/kg
COc1cccc2c1C(=O)c1c(O)c3c(c(O)c1C2=O)C[C@@](O)(C(=O)CO)C[C@@H]3O[C@H]1C[C@H](N)[C@H](O)[C@H](C)O1 [Doxorubicin] | 21.1 | – | – | – | – | – | – | – | – | – | – | – | – | – | – | –
